# Reference: patent US12357636B2 (Urovant Sciences GmbH, priority 2018, dated 2025)
# System: men and women with overactive bladder
# Experiment: Phase 3 study vibegron 75 mg vs placebo and tolterodine, 12 weeks, OAB: efficacy (Tables 21-25)
# Format: in vivo, human
# Procedure: Enrollment of patients included individuals with OAB Wet (those with UUI, the involuntary loss of urine accompanied by urgency) and OAB Dry (those without UUI). A total of 1,518 patients were randomized across 215 study sites into one of three groups for a 12-week treatment period.
# The study consisted of a Screening Period (1 to 5 weeks), a single-blind Run-in Period (2 weeks), a randomized double-blind Treatment Period (12 weeks), and a Follow-up Period (4 weeks).
# Tolterodine ER 4 mg was the active control. […] Between the Baseline and Week 12 Visits, patients had study assessments at Week 4 and Week 8.
# For the analysis of the co-primary endpoints (change from baseline in average number of daily micturitions at Week 12 and change from baseline in average number of daily urge urinary incontinence episodes at Week 12, and placebo adjustment of each), a mixed model for repeated measure (MMRM) with restricted maximum likelihood estimation was used. This model corrects for dropout and accounts for the fact that measurements taken on the same patient over time tend to be correlated by using all available information on patients within the same covariate set to derive an estimate of the treatment effect for a dropout-free population. The analysis model for each efficacy endpoint includes terms for treatment, visit, OAB Type (Wet vs Dry), Sex (Female vs Male), Region (US vs Rest of World), baseline score, and interaction of visit by treatment.
# Primary inferences were drawn from treatment differences for the changes from baseline derived from the MMRM models at Week 12. As part of secondary objectives, the treatment differences for each post baseline visit were also derived using the same MMRM model.
# An unstructured covariance matrix was used to model the correlation among repeated measurements. The Kenward-Roger adjustment was used with restricted (or residual) maximum likelihood (REML) to make statistical inference. If the unstructured covariance model fails to converge with the default Newton-Raphson algorithm, the Fisher scoring algorithm or other appropriate methods can be used to provide initial values of the covariance parameters. In the rare event that none of the above methods yield convergence, a structured covariance would be used to model the correlation among repeated measurements.
# The change from baseline efficacy endpoints was analyzed using the same MMRM model described for co-primary endpoints.
# Analysis of the efficacy endpoints of proportion of patients with at least 75% reduction in the average number of daily UUI episodes at Week 12 and proportion of patients with 50% reduction in the average number of daily urgency episodes at Week 12 was analyzed using the Cochran-Mantel-Haenszel risk difference estimate. Missing Week 12 data was analyzed using multiple imputation. The estimated difference in the proportion of responders and 95% confidence interval for the difference was calculated using the Cochran-Mantel-Haenszel risk difference estimate stratified by OAB Type (Wet vs Dry) and Sex (Female vs Male), with weights proposed by Greenland and Robins.
# The same statistical methods that were used to analyze the co-primary and secondary efficacy endpoints were used for the exploratory analyses. Exploratory responder analyses were analyzed using the same Cochran-Mantel-Haenszel model as described above for secondary endpoints.
smiles,measurement,setting,value
"O=C(Nc1ccc(C[C@@H]2CC[C@H]([C@H](O)c3ccccc3)N2)cc1)[C@@H]1CCc2nccc(=O)n21 [Vibegron, (6S)—N-[4-[[(2S,5R)-5-[(R)-hydroxy(phenyl)methyl]pyrrolidin-2-yl]methyl]phenyl]-4-oxo-7,8-dihydro-6H-pyrrolo[1,2-a]pyrimidine-6-carboxamide]",total incontinence episodes vs baseline,"75 mg QD, 12 weeks",reduced by half
same,Micturitions: Week 12 CFB Mean,"Males with BPH, descriptive statistics",−1.50
same,"OAB-q Coping Score, Week 12 LS Mean Change from Baseline (Placebo-Adjusted)","Week 12, key secondary endpoint, once-daily vibegron 75 mg or tolterodine",3.6
